# Test results from patent publication US8263642B2, “Antimicrobial compounds and methods of use thereof” (Vanderbilt University, priority 2008, dated 2012).
# Tests used:
# [1] = test system: hrtAB-driven expression of the xylE reporter gene; experiment: XylE reporter assay (hrtAB promoter-xylE), Newman; type: cell-based, Staphylococcus aureus; conditions: for XylE (0.05): level of XylE induction at 0.05 uM of the compound; for XylE (0.5): level of XylE induction at 0.5 uM of the compound; for XylE (5.0): level of XylE induction at 5.0 uM of the compound; for XylE (50.0): level of XylE induction at 50.0 uM of the compound
# Method: (§1) With reference to Table 1, “Luminescence” refers to the raw luminescence value obtained in a luminomter. “Control (82.5 nm)” refers to the luminescence value obtained from heme at 82.5 nM as a positive control in the same plate as the experimental. “% lum” is the percentage of luminescence induced by the compound as compared to the heme control in the same plate. […] All of these assays are described in the application. […] “N/T” indicates the test was not performed.
# Compounds that activate HssRS-driven hrtAB expression in the luciferase-based screen can be subjected to two separate counter screens to confirm these compounds as active hits. First, compounds of interest can be tested for their ability to activate expression of hrtAB in the XylE expression assay described hereinbelow. This is an in vitro assay that measures hrtAB-driven expression of the xylE reporter gene. The XylE-based reporter assay utilizes slightly more manipulations than the primary luciferase-based screen. […] It should be appreciated that a shortcoming of this counter screen is that it measures reporter gene expression, which is a similar activity as that measured in the primary assay. To address this shortcoming, compounds that are positive in both XylE- and luciferase-based assays can be subjected to a second counter screen as described hereinbelow.
# S. aureus strains harboring the appropriate reporter construct were inoculated into 500 μl of TSB containing 10 μg/ml chloramphenicol in 1.5 ml tubes. Cultures were grown O/N at 37° C. with shaking. Bacteria were pelleted by centrifugation and spent medium was aspirated. The pellet was washed once with 500 μl of 20 mM potassium phosphate, pH 7.6, and resuspended in 150 μl of 100 mM potassium phosphate buffer, pH 8.0, 10% (v/v) acetone, 25 μg/ml lysostaphin. After 20 minute incubation at 37° C. and 5 minute incubation on ice, samples were centrifuged at 20,000 g for 30 minutes at 4° C. 1-10 μl of supernatant was added to a 96-well plate and 200 μl of 100 mM potassium phosphate, pH 8.0, 0.2 mM pyrocatechol was added to each well. Formation of 2-hydroxymuconic semialdehyde was tracked by measuring the absorbance at 375 nm every minute for 30 minutes on a Varian MP 50 microplate reader. Protein concentration in samples was determined by BCA (Pierce). One unit of specific activity of XylE in a sample is defined as the formation of 1 nmol of 2-hydroxymuconic semialdehyde per minute per milligram of cellular protein at 30° C. (Chien, Y., Manna, A. C., Projan, S. J., and Cheung, A. L. 1999, “SarA, a global regulator of virulence determinants in Staphylococcus aureus, binds to a conserved motif essential for sar-dependent gene regulation. J. Biol. Chem. 274, 37169-37176).
# The hrtAB intergenic region was fused to the xylE structural gene by PCR-SOE. In the first reaction, primer P1B:[…] and P2B:[…] were used to amplify the hrtAB intergenic region from S. aureus strain Newman genomic DNA. In the second PCR reaction primers P3B:[…] and P4B:[…] were used to amplify the xylE structural gene using pALC1639 template DNA (provided by Dr. Ambrose Cheung) and PCR product purified using a Qiagen gel extraction kit. For the PCRSOE reaction, a 1:300 dilution of purified reaction 1 and reaction 2 PCR products was mixed and amplified by PCR using […]. This yielded a construct in which the hrtAB intergenic region is fused to the xylE gene in such a manner that the position of the start codon for xylE corresponds to the position of the start codon for […] in the hrtAB locus. The hrtAB promoter-xylE fusion DNA was then subcloned into pOS1. As a control we also constructed a promoterless xylE vector. The xylE gene was amplified from pACL1639 template DNA using the primers P1C:[…] and P2C:[…] and then cloned into the pOS1 vector.
# [2] = test system: HssRS-dependent hrtAB expression; experiment: Luminescence-based assay to monitor HssRS-dependent hrtAB expression (phrtABlux reporter), Newman; type: cell-based, Staphylococcus aureus; conditions: Newman; for activation at 0.0825 µM: Staphylococcus aureus, NEWMAN, read-out: % Lumi, luminescence induced by the compound compared to the heme control (82.5 nM) in the same plate; for Luminescence: raw luminescence value obtained in a luminometer
# Method: as §1
# A hrtAB-driven expression system was created in the pXen vector system (Xenogen) (Francis, K. P., D. Joh, C. Bellinger-Kawahara, M. J. Hawkinson, T. F. Purchio, and P. R. Contag. 2000. Monitoring bioluminescent Staphylococcus aureus infections in living mice using a novel luxABCDE construct. Infect Immun 68:3594-3600). This vector contains a promoterless luxCDABE operon from Photorabdus luminescens which produces blue green light when expressed. The luxCDABE encodes for a fatty acid reductase (LuxCDE) that produces a long chain fatty aldehyde which, when combined with cellular flavin mononucleotide, is oxidized by a luciferase (LuxAB) to produce light. Therefore, this system is useful in that it bypasses the need for substrate addition and is capable of generating light in the absence of any added reagents. Furthermore, the luminescent signal produced by the combined activities of LuxAB and LuxCDE is of sufficient intensity to be visualized in unmanipulated intact bacteria.
# To establish an assay that measures HssRS-dependent expression of luxCDABE, the promoter for hrtAB upstream of luxCDABE was cloned and transformed this vector (phrtABlux) into wildtype and ΔhssR S. aureus. A promoterless vector (plux) and a plasmid containing luxCDABE under the control of a constitutive promoter (psrtAlux) (Mazmanian, S. K., G. Liu, H. Ton-That, and O. Schneewind. 1999. “Staphylococcus aureus sortase, an enzyme that anchors surface proteins to the cell wall.” Science 285:760-763) were included as negative and positive controls, respectively. Initially, wildtype S. aureus harboring either plux, phrtABlux, or psrtAlux were plated on solid medium that either lacked heme or contained 4 μM heme. Only wildtype S. aureus containing psrtAlux produced light on solid media regardless of the presence or absence of heme. […] Light was not produced by bacteria containing plux in either condition.
# To adapt this system for a HTS to measure ligand recognition by HssRS, luminescence of wildtype and ΔhssR harboring the above listed plasmids in liquid media with or without heme was measured. […] Taken together, these experiments establish a whole cell […] assay that can identify small molecule modifiers of HssRS. This screen, in some aspects, can identify molecules that can be used as molecular probes in structure-function analyses to determine the mechanism by which S. aureus sense host heme.
# Upon staphylococcal exposure to heme, HssRS senses heme and activates expression of hrtAB. This process can be measured using a reporter assay that employs a vector encoding the light-producing luxCDABE operon under the control of the hrtAB promoter. This assay results in whole cell luminescence upon HssRS-dependent activation of hrtAB, forming the foundation for the development of an assay suitable for high-throughput screens for small molecule activators of HssRS.
# To develop an automated HTS format, S. aureus wildtype and ΔhssR harboring reporter constructs (psrtAlux, phrtAlux, plux) can be grown for 15 hours at 37° C. in tryptic soy broth (TSB) containing 10 μg/ml chloramphenicol. The addition of chloramphenicol is useful to ensure that the staphylococci propagate the reporter plasmid upon cell division. Following growth, bacterial cultures can be normalized and 2×10^7 cells (approximately 2 μl) can be added to individual wells of black walled, clear bottomed, 96-well plates. […]
SMILES,XylE (0.05) [1],XylE (0.5) [1],XylE (5.0) [1],XylE (50.0) [1],activation at 0.0825 µM [2],Luminescence [2]
COc1ccc(CN2CCCN(C)CC2)c(C)c1C,0,0,1,1,127%,534
CCc1ccccc1NC(=O)C1CCCCC1C(=O)O (stereo not shown),1,0.05,0.02,1,136%,576
Brc1ccc(CN2CCN(c3ccccc3)CC2)o1,0.07,0.05,1,0.02,39.3%,166
Oc1ccc(CCNC2CCCc3c2[nH]c2ccc(-c4ccccc4)cc32)cc1 (stereo not shown),0.06,0.02,1,1,127%,534
O=S(=O)(Nc1cc(Cl)ccc1Cl)c1ccc(Cl)cc1,0.02,0.07,0.5,0.1,146%,618
COc1ccc(Cl)cc1NC(=O)Nc1ccc(Cl)cc1,1,0.03,0,0.03,180%,586
O=C(/C=C/c1ccc([N+](=O)[O-])s1)Nc1ccc(I)cc1,0.09,4,5,6,107%,678
Cc1cc(O)c(NC(=S)NC(=O)c2ccc(C(C)(C)C)cc2)cc1C,0.09,0.2,0.2,0.3,127%,808
O=[N+]([O-])c1ccc(O)c(C2NN=C(Cc3ccccc3)S2)c1 (stereo not shown),0.02,0.05,1,1,871%,2805
NS(=O)(=O)c1ccc(Nc2nc(-c3ccc(Cl)cc3)cs2)cc1,0.04,1,1,0.02,,4946
CCCCCCC(=O)NC(NC(=S)Nc1ccccc1O)C(Cl)(Cl)Cl (stereo not shown),0.5,0.2,0.04,0.03,,2766
Cc1c(-c2ccccc2)nc2ccccc2c1C(=O)Nc1ccccc1C(F)(F)F,0.5,0.7,0.03,0.02,,2424
O=C1C2=C(Nc3nn(-c4ccccc4)c(O)c3C2c2ccc([N+](=O)[O-])cc2)c2ccccc21 (stereo not shown),0.4,1,0.3,1,,2608
CCOC(=O)c1c(NC(=O)C2CCCCC2)sc(C(=O)Nc2ccc(C)c(Cl)c2)c1C,8,2,1,1,,2374
Oc1ccc(Nc2n[n+](-c3ccc(Cl)cc3)cc3ccccc23)cc1,0.5,6,1,0.6,,2098
COc1ccccc1N1C(=O)c2ccc(C(=O)OC(C)C(=O)c3ccc(C)cc3)cc2C1=O (stereo not shown),1,0.6,0.7,1,,3189
Oc1ccc(Nc2nc(-c3ccc(Cl)cc3)nc3ccccc23)cc1,1,1,1,1,,3096
